Assay results as given in the supplement of paper PMC3770661.
± gives the uncertainty stated by the source.

Tested on: HepG2 (L1.3 5'UTR promoter firefly luciferase reporter)
Assay: L1 promoter activity (FLuc/RLuc) relative to DMSO vehicle control (% of control); higher = stronger L1 promoter activation
[1] = concentration (uM unless unit written): 50, treatment time: 6 h
[2] = concentration (uM unless unit written): 50, treatment time: 24 h
[3] = concentration (uM unless unit written): 100, treatment time: 6 h
[4] = concentration (uM unless unit written): 500, treatment time: 6 h
[5] = concentration (uM unless unit written): 500, treatment time: 24 h

CC(=O)N[C@H]1[C@@H](O[C@@H]2O[C@H](CC(O)[C@H]3O[C@@H](n4ccc(=O)[nH]c4=O)[C@H](O)[C@@H]3O)[C@H](O)[C@H](O)[C@H]2NC(=O)/C=C/CC(C)C)O[C@H](CO)[C@@H](N)[C@@H]1O (stereo partly drawn) [Tunicamycin]
L1 promoter activity (concentration (uM unless unit written): 5 μg/mL, treatment time: 6 h): 76.6 ± 8.1
L1 promoter activity (concentration (uM unless unit written): 5 μg/mL, treatment time: 24 h): 73.3 ± 3.2
L1 promoter activity (concentration (uM unless unit written): 10 μg/mL, treatment time: 6 h): 66.6 ± 7.3
L1 promoter activity (concentration (uM unless unit written): 10 μg/mL, treatment time: 24 h): 84.5 ± 11
L1 promoter activity (concentration (uM unless unit written): 20 μg/mL, treatment time: 6 h): 63.5 ± 3.2
L1 promoter activity (concentration (uM unless unit written): 20 μg/mL, treatment time: 24 h): 72.1 ± 7.7
L1 promoter activity (concentration (uM unless unit written): 40 μg/mL, treatment time: 24 h): 75.8 ± 6.2

CCCC(CCC)C(=O)O [Valproic acid]
L1 promoter activity (concentration (uM unless unit written): 2500, treatment time: 6 h): 90.2 ± 25
L1 promoter activity (concentration (uM unless unit written): 2500, treatment time: 24 h): 18.5 ± 1.6

CC[C@]1(O)C[C@@H]2CN(CCc3c([nH]c4ccccc34)[C@@](C(=O)OC)(c3cc4c(cc3OC)N(C)[C@H]3[C@@](O)(C(=O)OC)[C@H](OC(C)=O)[C@]5(CC)C=CCN6CC[C@]43[C@@H]65)C2)C1 [Vinblastine]
L1 promoter activity (concentration (uM unless unit written): 0.1, treatment time: 6 h): 92.8 ± 15
L1 promoter activity (concentration (uM unless unit written): 0.1, treatment time: 24 h): 181 ± 31
L1 promoter activity (concentration (uM unless unit written): 1, treatment time: 6 h): 92.1 ± 23
L1 promoter activity (concentration (uM unless unit written): 1, treatment time: 24 h): 161 ± 30
L1 promoter activity (concentration (uM unless unit written): 5, treatment time: 6 h): 94 ± 12
L1 promoter activity (concentration (uM unless unit written): 5, treatment time: 24 h): 207 ± 24

CC(=O)CC(c1ccccc1)c1c(O)c2ccccc2oc1=O (stereo not drawn) [Warfarin]
L1 promoter activity (concentration (uM unless unit written): 25, treatment time: 6 h): 98.9 ± 11
L1 promoter activity (concentration (uM unless unit written): 25, treatment time: 24 h): 85 ± 5.2
L1 promoter activity [1]: 89.5 ± 12
L1 promoter activity [2]: 85.8 ± 14
L1 promoter activity [3]: 91.7 ± 11
L1 promoter activity (concentration (uM unless unit written): 100, treatment time: 24 h): 74.2 ± 9.4
L1 promoter activity [4]: 90.8 ± 25
L1 promoter activity [5]: 64.1 ± 6.6

Cc1cc(CC(=O)O)n(C)c1C(=O)c1ccc(Cl)cc1 [Zomepirac]
L1 promoter activity [4]: 102 ± 9.6
L1 promoter activity [5]: 86.3 ± 6.3

Clc1ccc(C(c2ccccc2Cl)C(Cl)Cl)cc1 (stereo not drawn) [o.p'-Dichlorodiphenyldichloroethane]
L1 promoter activity [1]: 97.3 ± 5
L1 promoter activity [2]: 108 ± 5.8
L1 promoter activity [3]: 77.5 ± 11
